According to article PMC5923123, “In Vitro and In Vivo Efficacy of a Novel and Long-Acting Fungicidal Azole, PC1244, on Aspergillus fumigatus Infection” (Antimicrobial Agents and Chemotherapy, 2018):
Values after ≈ are worked out from the molar mass of the structure shown.

What was measured:
A. fumigatus AF293 = experiment: EUCAST broth microdilution growth inhibition (OD 530 nm, 384-well); assay type: cell-based; conditions: Aspergillus fumigatus, strain AF293 (ITC-susceptible), 48 h
Method: (§1) The antifungal activities of the test compounds against A. fumigatus strains (itraconazole [ITC]-susceptible strains NCPF2010, AF294, and AF293; ITC-resistant strains AF72 and AF91) were calculated from growth curves generated by spectrophotometric analysis and compared to the activities against positive and negative controls.

A. fumigatus AF72 = experiment: as above; assay type: cell-based; conditions: Aspergillus fumigatus, strain AF72 (ITC-resistant), 48 h
Method: as §1

A. fumigatus AF91 = experiment: as above; assay type: cell-based; conditions: Aspergillus fumigatus, strain AF91 (ITC-resistant), 48 h
Method: as §1

A. fumigatus AF294 = experiment: as above; assay type: cell-based; conditions: Aspergillus fumigatus, strain AF294 (ITC-susceptible), 48 h
Method: as §1

A. fumigatus NCPF2010 = experiment: as above; assay type: cell-based; conditions: Aspergillus fumigatus, strain NCPF2010 (ITC-susceptible), 48 h, range tested 0.002 to 1 μg/ml
Method: as §1

A. fumigatus isolates = tested on: A. fumigatus isolates; design: method as in PMID 12202554; conditions: MFC = lowest dilution yielding less than 3 colonies; cited from earlier work
[1] = tested on: A. fumigatus (ATCC 13073 [strain NIH 5233]); experiment: MIC against the strain used in vivo; assay type: cell-based; conditions: Aspergillus fumigatus, ATCC13073; strain ATCC 13073; read-out: MIC

**Q.** What does the source list for `C[C@@H]1[C@H](O)[C@@H](C)/C=C/C=C/C=C/C=C/C=C/C=C/C=C/[C@H](O[C@@H]2O[C@H](C)[C@@H](O)[C@H](N)[C@@H]2O)C[C@@H]2O[C@](O)(C[C@@H](O)C[C@@H](O)[C@H](O)CC[C@@H](O)C[C@@H](O)CC(=O)O[C@H]1C)C[C@H](O)[C@H]2C(=O)O` [Amphotericin B, amphotericin B]?
**A.** IC50 (A. fumigatus AF293): 0.24 µg/mL (≈ 0.26 µM); IC90 (A. fumigatus AF293): 0.85 µg/mL (≈ 0.92 µM); IC50 (A. fumigatus AF72): 0.12 µg/mL (≈ 0.13 µM); IC90 (A. fumigatus AF72): 0.42 µg/mL (≈ 0.455 µM); IC50 (A. fumigatus AF91): 0.28 µg/mL (≈ 0.303 µM); IC90 (A. fumigatus AF91): 0.75 µg/mL (≈ 0.812 µM); IC50 (A. fumigatus AF294): 0.21 µg/mL (≈ 0.227 µM); IC90 (A. fumigatus AF294): 0.79 µg/mL (≈ 0.855 µM); IC50 (A. fumigatus NCPF2010): 0.2 µg/mL (≈ 0.216 µM); IC90 (A. fumigatus NCPF2010): 0.62 µg/mL (≈ 0.671 µM)

**Q.** Which IC50 (A. fumigatus AF293) does the source give for `CC[C@H](C)C[C@H](C)CCCCCCCCC(=O)N[C@H]1C[C@@H](O)[C@@H](NCCN)NC(=O)[C@@H]2[C@@H](O)CCN2C(=O)[C@H]([C@H](O)CCN)NC(=O)[C@H]([C@H](O)[C@@H](O)c2ccc(O)cc2)NC(=O)[C@@H]2C[C@@H](O)CN2C(=O)[C@H]([C@@H](C)O)NC1=O` [Caspofungin, caspofungin] here?
**A.** > 1 µg/mL

**Q.** And the IC90 (A. fumigatus AF293)?
**A.** > 1 µg/mL

**Q.** And the IC50 (A. fumigatus AF72)?
**A.** 0.065 µg/mL (≈ 0.0595 µM)

**Q.** What about the IC90 (A. fumigatus AF72) of the same compound?
**A.** > 1 µg/mL

**Q.** What about the IC50 (A. fumigatus AF91) of the same compound?
**A.** 0.11 µg/mL (≈ 0.101 µM)

**Q.** And the IC90 (A. fumigatus AF91)?
**A.** > 1 µg/mL

**Q.** And the IC50 (A. fumigatus AF294)?
**A.** > 1 µg/mL

**Q.** What about the IC90 (A. fumigatus AF294) of the same compound?
**A.** > 1 µg/mL

**Q.** What about the IC50 (A. fumigatus NCPF2010) of the same compound?
**A.** 0.065 µg/mL (≈ 0.0595 µM)

**Q.** And the IC90 (A. fumigatus NCPF2010)?
**A.** > 1 µg/mL

**Q.** With `CCC(C)n1ncn(-c2ccc(N3CCN(c4ccc(OCC5COC(Cn6cncn6)(c6ccc(Cl)cc6Cl)O5)cc4)CC3)cc2)c1=O` (centres unmarked) [Itraconazole, itraconazole] as the compound, how does the “range of MFCs for inhibition of 90% of isolates tested (MFC90)” value (A. fumigatus isolates) read?
**A.** 0.2 to 4 µg/mL

**Q.** What about the MIC [1] of the same compound?
**A.** 0.5 µg/mL (≈ 0.709 µM)

**Q.** What about the IC50 (A. fumigatus AF293) of the same compound?
**A.** 0.032 µg/mL (≈ 0.0453 µM)

**Q.** What about the IC90 (A. fumigatus AF293) of the same compound?
**A.** 0.23 µg/mL (≈ 0.326 µM)

**Q.** What about the IC50 (A. fumigatus AF72) of the same compound?
**A.** 0.31 µg/mL (≈ 0.439 µM)

**Q.** What about the IC90 (A. fumigatus AF72) of the same compound?
**A.** > 1 µg/mL

**Q.** What about the IC50 (A. fumigatus AF91) of the same compound?
**A.** 0.22 µg/mL (≈ 0.312 µM)

**Q.** And the IC90 (A. fumigatus AF91)?
**A.** > 1 µg/mL

**Q.** And the IC50 (A. fumigatus AF294)?
**A.** 0.041 µg/mL (≈ 0.0581 µM)

**Q.** And the IC90 (A. fumigatus AF294)?
**A.** 0.052 µg/mL (≈ 0.0737 µM)

**Q.** And the IC50 (A. fumigatus NCPF2010)?
**A.** 0.037 µg/mL (≈ 0.0524 µM)

**Q.** What about the IC90 (A. fumigatus NCPF2010) of the same compound?
**A.** 0.054 µg/mL (≈ 0.0765 µM)
